In patent US20030138399A1, “Anti-inflammatory therapy for inflammatory mediated infection” (priority 1999, published 2003):
Where two headings read alike, the source gives them in different places.

Columns and labels:
[1] = system: HIV pNLlucΔBgl pseudotyped with M-tropic JRFL envelope; assay: HIV replication (luciferase expression) in activated PBMCs, M-tropic pseudotyped virus; type: cell-based; conditions: 4 days in culture
Procedure: (§1) The PBMCs comprise a heterogeneous population of CD4 and CD8 cells with chemokines and cytokines present in the medium. […] Replication incompetent HIV pNLlucΔBgl pseudotyped with either M-tropic JRFL or T-tropic LAI envelope was used for the infection. Luciferase expression was used to assess the degree of HIV replication after 4 days in culture. Medication treated cultures were compared with samples receiving no drug. Cells were analyzed by flow cytometry for cell death after 4 days by staining with 7-AAD.

[2] = system: HIV pNLlucΔBgl pseudotyped with T-tropic LAI envelope; assay: HIV replication (luciferase expression) in activated PBMCs, T-tropic pseudotyped virus; type: cell-based; conditions: 4 days in culture
Procedure: as §1

activated PBMCs = conditions: 4 days
Procedure: as §1

[3] = system: HIV virus that expresses luciferase when replicated; assay: FIG. 19: HIV replication in cultured infected cells, luciferase by luminometer; type: cell-based
Procedure: Cultured cells infected with HIV were treated with 5-ASA or AZT in the amounts indicated. Luciferase expression, which indicates the amount of HIV replication, was quantified using a luminometer. The data shown represent nine separate studies.
(§2) Using a culture of cells that are infected with an HIV virus that expresses luciferase when replicated, but without any treatment as a control, Asacol at the two lowest doses (30 and 300 micrograms) is able to inhibit HIV replication by approximately 20%. At the 3000 microgram dose, the amount of suppression is higher, but this is due, in part, to cellular toxicity of the drug at this dose (approximately 30% cell death vs. 13-15% cell death for 30 and 300 microgram doses; AZT produces approximately 16% cell death at a dose of 5 μg). […] While the anti-inflammatory activity of Asacol is not as potent at suppressing HIV replication as is AZT, the activity is nonetheless statistically significant.

[4] = system: cultured cells infected with HIV; assay: FIG. 19 study: cell death (cellular toxicity of the drug); type: cell-based
From the text: as §2

With `Nc1ccc(O)c(C(=O)O)c1` [5-ASA, 5-aminosalicylic acid] the “% Change from untreated culture (luciferase expression), M-tropic HIV” value (“% Change from untreated culture … M-tropic HIV” below) ([1]; 3 μM) was 46.2%, the “% Change from untreated culture … M-tropic HIV” value ([1]; 30 μM) was 50.3% and the “% Change from untreated culture … M-tropic HIV” value ([1]; 300 μM) was 48.9%. For the same compound, the “% Change from untreated culture … M-tropic HIV” value ([1]; 3000 μM, *P < .05) was 67.6* %, the “% Change from untreated culture (luciferase expression), T-Tropic HIV” value (“% Change from untreated culture … T-Tropic HIV” below) ([2]; 2 μM) was 3.2% and the “% Change from untreated culture … T-Tropic HIV” value ([2]; 20 μM) was 22.4%. The “% Change from untreated culture … T-Tropic HIV” value ([2]; 200 μM) was 26.0%, the “% death” value (activated PBMCs; 30 μM) was 7.3% and the “% death” value (activated PBMCs; 300 μM) was 9.4%. The “% death” value (activated PBMCs; 3000 μM) was 13.3%, the “amount of suppression of HIV replication” value ([3]; 3000 microgram dose, compared with lower doses) was “higher” and the “inhibition of HIV replication” value ([3]; two lowest doses (30 and 300 micrograms)) was “approximately 20%”. The cell death ([4]; 30 and 300 microgram doses) was 13-15% and the cell death ([4]; 3000 microgram dose) was “approximately 30%”.
`Cc1cn([C@H]2C[C@H](N=[N+]=[N-])[C@@H](CO)O2)c(=O)[nH]c1=O` [AZT, zidovudine] was tested, and the “% Change from untreated culture … M-tropic HIV” value ([1]; 5 μM, *P < .05) was 80.0* %, the “% Change from untreated culture … T-Tropic HIV” value ([2]; 5 μM, *P < .05) was 99.3* % and the cell death ([4]; dose of 5 μg) was “approximately 16%”.
